From the kinase profiling compilation of Christmann-Franck et al. (2016)

Legend:
Test in all cases: KINOMEscan competition binding
Conditions in all cases: compound 10.0 µM
CDC2L2 (human) = CDC2L2 (human) (UniProt Q9UQ88)
[1] = test system: KIT (human), P10721 [D816H]
[2] = target: JAK1 JH2 pseudokinase (human) (UniProt P23458)
TSSK1B (human) = TSSK1B (human) (UniProt Q9BXA7)
[3] = test system: PIK3CA (human), P42336 [E542K]
IKBKB (human) = IKBKB (human) (UniProt O14920)
CDK16 (human) = CDK16 (human) (UniProt Q00536)
EPHB3 (human) = EPHB3 (human) (UniProt P54753)
TAOK1 (human) = TAOK1 (human) (UniProt Q7L7X3)
[4] = test system: RET (human), P07949 [V804L]
CDK14 (human) = CDK14 (human) (UniProt O94921)
ICK (human) = ICK (human) (UniProt Q9UPZ9)
VRK2 (human) = VRK2 (human) (UniProt Q86Y07)
SGK3 (human) = SGK3 (human) (UniProt Q96BR1)
DYRK1B (human) = DYRK1B (human) (UniProt Q9Y463)
CASK (human) = CASK (human) (UniProt O14936)
MAP3K13 (human) = MAP3K13 (human) (UniProt O43283)
STK36 (human) = STK36 (human) (UniProt Q9NRP7)
CDK19 (human) = CDK19 (human) (UniProt Q9BWU1)
FGFR2 (human) = FGFR2 (human) (UniProt P21802)
MAPK3 (human) = MAPK3 (human) (UniProt P27361)
[5] = test system: KIT (human), P10721 [V559D]
GSK3A (human) = GSK3A (human) (UniProt P49840)
STK17A (human) = STK17A (human) (UniProt Q9UEE5)
PRKCE (human) = PRKCE (human) (UniProt Q02156)
MYO3B (human) = MYO3B (human) (UniProt Q8WXR4)
[6] = target: JAK3 JH1 catalytic (human) (UniProt P52333)
NEK9 (human) = NEK9 (human) (UniProt Q8TD19)
ERBB3 (human) = ERBB3 (human) (UniProt P21860)
PI4KB (human) = PI4KB (human) (UniProt Q9UBF8)
MAP2K6 (human) = MAP2K6 (human) (UniProt P52564)
[7] = test system: EIF2AK4 KD2 (human), Q9P2K8 [S808G]
SBK1 (human) = SBK1 (human) (UniProt Q52WX2)
[8] = test system: RET (human), P07949 [V804M]
CDK15 (human) = CDK15 (human) (UniProt Q96Q40)
TRPM6 (human) = TRPM6 (human) (UniProt Q9BX84)
[9] = test system: FLT3 (human), P36888 [ITD]
ITK (human) = ITK (human) (UniProt Q08881)
BMPR2 (human) = BMPR2 (human) (UniProt Q13873)
BMPR1B (human) = BMPR1B (human) (UniProt O00238)
CDK7 (human) = CDK7 (human) (UniProt P50613)

Sequence of DYRK1B (human) (Q9Y463 whole entry, looked up): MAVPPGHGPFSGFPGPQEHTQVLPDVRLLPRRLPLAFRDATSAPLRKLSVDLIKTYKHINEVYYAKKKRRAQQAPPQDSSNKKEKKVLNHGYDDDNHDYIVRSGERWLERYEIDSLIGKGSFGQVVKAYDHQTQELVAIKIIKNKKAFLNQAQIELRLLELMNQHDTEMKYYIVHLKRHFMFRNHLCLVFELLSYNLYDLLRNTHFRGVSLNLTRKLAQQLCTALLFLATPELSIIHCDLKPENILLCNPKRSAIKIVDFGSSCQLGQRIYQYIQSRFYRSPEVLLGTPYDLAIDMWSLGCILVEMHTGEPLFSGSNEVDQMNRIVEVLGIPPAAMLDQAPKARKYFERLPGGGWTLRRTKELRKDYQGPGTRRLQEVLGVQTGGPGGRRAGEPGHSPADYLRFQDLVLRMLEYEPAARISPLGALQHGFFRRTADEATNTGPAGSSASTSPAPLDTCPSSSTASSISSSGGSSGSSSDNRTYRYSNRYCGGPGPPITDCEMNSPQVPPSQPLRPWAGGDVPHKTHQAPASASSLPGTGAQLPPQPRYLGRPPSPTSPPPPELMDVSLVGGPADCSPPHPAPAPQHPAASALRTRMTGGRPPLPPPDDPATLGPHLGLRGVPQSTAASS
Sequence of VRK2 (human) (Q86Y07 whole entry, looked up): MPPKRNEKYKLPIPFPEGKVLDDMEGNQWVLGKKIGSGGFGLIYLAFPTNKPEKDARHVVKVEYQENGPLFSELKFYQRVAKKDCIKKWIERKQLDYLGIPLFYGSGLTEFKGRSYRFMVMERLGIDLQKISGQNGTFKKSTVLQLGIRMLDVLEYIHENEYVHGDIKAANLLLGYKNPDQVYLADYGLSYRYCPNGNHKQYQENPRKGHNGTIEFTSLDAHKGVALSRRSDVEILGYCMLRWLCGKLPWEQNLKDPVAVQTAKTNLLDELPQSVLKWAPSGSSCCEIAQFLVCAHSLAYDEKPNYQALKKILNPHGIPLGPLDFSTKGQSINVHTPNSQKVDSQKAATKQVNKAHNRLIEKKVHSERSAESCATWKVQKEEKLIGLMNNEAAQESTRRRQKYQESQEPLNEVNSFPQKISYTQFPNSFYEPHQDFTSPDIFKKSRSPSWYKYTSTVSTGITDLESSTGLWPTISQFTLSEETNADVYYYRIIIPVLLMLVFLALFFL
Sequence of BMPR1B (human) (O00238 whole entry, looked up): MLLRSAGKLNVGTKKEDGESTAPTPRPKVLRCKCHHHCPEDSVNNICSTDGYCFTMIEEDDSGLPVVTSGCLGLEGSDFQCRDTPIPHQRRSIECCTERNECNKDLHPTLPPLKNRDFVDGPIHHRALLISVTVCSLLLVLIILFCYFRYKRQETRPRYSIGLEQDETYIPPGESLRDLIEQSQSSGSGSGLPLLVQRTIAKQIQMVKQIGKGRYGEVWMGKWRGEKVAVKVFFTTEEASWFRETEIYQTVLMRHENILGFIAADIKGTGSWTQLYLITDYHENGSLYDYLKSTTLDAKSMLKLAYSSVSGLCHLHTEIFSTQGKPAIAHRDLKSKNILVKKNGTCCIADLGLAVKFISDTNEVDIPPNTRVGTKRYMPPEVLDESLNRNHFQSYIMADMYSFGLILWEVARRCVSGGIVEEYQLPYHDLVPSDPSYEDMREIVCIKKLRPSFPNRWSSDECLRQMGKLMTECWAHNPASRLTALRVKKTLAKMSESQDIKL
Sequence of ERBB3 (human) (P21860 whole entry, looked up): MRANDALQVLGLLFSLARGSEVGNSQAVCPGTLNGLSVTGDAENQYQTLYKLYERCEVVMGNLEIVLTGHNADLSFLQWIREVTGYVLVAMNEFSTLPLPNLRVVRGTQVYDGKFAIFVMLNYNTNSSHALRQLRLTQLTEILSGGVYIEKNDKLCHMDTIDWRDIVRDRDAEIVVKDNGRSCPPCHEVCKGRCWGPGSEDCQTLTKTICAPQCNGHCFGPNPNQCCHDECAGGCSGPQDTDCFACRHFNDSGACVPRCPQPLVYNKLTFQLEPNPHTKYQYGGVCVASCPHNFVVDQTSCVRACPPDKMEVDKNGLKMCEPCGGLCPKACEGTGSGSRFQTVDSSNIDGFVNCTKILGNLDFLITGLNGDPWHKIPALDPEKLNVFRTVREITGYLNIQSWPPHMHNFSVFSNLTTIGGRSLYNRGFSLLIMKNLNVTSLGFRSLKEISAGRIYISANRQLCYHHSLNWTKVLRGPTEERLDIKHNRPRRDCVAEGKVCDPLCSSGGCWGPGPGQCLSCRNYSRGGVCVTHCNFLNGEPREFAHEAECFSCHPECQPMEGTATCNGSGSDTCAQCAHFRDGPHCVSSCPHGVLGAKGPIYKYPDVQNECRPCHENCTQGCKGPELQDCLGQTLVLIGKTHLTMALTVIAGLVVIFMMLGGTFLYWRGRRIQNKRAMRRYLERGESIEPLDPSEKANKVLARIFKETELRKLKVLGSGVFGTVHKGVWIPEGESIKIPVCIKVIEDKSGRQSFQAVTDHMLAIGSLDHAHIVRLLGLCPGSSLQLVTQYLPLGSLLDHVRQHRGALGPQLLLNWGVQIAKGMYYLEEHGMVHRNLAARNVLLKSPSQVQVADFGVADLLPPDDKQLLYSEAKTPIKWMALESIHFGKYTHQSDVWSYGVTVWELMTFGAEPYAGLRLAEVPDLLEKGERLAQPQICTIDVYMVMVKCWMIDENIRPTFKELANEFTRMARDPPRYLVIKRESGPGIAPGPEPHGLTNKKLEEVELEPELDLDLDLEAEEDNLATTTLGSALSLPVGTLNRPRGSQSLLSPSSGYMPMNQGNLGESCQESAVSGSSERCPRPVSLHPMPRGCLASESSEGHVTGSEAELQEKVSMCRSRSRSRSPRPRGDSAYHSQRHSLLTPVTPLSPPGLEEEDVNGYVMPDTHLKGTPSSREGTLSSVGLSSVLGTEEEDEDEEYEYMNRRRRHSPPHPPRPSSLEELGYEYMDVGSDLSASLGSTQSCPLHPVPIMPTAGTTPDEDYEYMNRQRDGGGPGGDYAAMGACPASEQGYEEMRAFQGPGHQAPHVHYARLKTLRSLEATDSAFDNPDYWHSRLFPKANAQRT
Sequence of RET (human), P07949 [V804M] (P07949 whole entry V804M, looked up): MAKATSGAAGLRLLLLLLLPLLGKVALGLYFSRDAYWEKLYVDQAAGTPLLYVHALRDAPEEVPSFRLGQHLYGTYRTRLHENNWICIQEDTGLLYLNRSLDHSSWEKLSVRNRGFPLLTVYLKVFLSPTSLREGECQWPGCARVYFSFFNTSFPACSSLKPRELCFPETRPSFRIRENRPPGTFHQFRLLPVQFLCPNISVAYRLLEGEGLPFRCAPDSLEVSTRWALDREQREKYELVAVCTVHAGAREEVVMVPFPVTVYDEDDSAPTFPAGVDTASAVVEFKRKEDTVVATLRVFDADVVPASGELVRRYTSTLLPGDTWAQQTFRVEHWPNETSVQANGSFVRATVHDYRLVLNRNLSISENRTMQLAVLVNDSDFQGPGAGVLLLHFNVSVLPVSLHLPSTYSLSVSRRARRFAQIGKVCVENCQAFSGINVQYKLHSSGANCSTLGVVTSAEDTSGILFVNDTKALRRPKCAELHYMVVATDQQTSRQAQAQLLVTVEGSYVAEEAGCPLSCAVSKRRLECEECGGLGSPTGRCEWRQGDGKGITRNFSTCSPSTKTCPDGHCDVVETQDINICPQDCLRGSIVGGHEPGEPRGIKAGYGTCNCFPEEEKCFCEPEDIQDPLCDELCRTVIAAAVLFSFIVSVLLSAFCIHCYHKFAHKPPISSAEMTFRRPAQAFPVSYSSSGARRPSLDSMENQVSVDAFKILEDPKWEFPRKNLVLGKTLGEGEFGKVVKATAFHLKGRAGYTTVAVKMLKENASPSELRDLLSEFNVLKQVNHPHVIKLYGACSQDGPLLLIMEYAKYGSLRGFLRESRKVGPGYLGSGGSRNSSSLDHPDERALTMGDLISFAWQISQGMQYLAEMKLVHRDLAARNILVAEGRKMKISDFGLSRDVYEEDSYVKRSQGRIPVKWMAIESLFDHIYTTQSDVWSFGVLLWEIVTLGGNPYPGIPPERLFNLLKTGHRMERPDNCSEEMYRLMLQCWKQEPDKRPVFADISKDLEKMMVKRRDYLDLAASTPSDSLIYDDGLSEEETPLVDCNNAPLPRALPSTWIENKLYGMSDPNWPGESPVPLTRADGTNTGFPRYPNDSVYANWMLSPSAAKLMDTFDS
Sequence of KIT (human), P10721 [V559D] (P10721 whole entry V559D, looked up): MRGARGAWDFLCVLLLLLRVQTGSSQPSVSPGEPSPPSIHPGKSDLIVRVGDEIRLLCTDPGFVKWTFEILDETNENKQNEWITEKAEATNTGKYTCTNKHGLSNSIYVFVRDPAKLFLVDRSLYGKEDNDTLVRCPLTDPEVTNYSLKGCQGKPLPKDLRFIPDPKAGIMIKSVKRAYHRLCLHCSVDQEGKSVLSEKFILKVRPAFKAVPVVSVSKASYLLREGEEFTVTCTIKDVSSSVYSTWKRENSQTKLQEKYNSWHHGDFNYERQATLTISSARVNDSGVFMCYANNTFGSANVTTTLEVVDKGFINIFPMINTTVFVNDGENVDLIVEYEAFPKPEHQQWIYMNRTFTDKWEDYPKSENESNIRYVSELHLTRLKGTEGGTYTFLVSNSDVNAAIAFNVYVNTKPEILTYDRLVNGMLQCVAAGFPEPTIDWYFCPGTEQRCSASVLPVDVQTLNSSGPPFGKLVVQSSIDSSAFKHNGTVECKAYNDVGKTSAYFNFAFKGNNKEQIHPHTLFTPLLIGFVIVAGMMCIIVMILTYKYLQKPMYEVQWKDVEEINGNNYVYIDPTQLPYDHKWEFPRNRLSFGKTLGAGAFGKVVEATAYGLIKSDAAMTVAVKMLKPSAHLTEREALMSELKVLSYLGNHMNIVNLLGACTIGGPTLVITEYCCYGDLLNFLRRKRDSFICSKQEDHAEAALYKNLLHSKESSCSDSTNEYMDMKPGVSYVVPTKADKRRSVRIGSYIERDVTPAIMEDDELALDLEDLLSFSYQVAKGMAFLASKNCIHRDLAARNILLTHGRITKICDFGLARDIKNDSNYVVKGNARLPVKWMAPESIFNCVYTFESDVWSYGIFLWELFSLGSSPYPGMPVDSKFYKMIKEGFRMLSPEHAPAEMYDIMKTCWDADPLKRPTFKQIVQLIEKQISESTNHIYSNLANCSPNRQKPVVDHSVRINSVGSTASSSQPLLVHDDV

**Q.** How did the per cent of control (CDC2L2 (human)) turn out when `COC(=O)Nc1ccc(-c2nc(N3CCOCC3)c3cnn(C4CCN(C(=O)OC)CC4)c3n2)cc1` was run?
**A.** Its per cent of control is 100%.

**Q.** What about the kinase still bound, per cent of control [1] of the same compound?
**A.** The kinase still bound, per cent of control was 75%.

**Q.** What about the kinase still bound, per cent of control [2] of the same compound?
**A.** Its kinase still bound, per cent of control is 74%.

**Q.** What about the kinase still bound, per cent of control (TSSK1B (human)) of the same compound?
**A.** Its kinase still bound, per cent of control is 100%.

**Q.** What about the kinase still bound, per cent of control [3] of the same compound?
**A.** Its kinase still bound, per cent of control is 5.2%.

**Q.** And the kinase still bound, per cent of control (IKBKB (human))?
**A.** Its kinase still bound, per cent of control is 74%.

**Q.** What about the per cent of control (CDK16 (human)) of the same compound?
**A.** Its per cent of control is 100%.

**Q.** And the kinase still bound, per cent of control (EPHB3 (human))?
**A.** Its kinase still bound, per cent of control is 74%.

**Q.** And the kinase still bound, per cent of control (TAOK1 (human))?
**A.** Its kinase still bound, per cent of control is 83%.

**Q.** And the kinase still bound, per cent of control [4]?
**A.** Its kinase still bound, per cent of control is 84%.

**Q.** And the per cent of control (CDK14 (human))?
**A.** Its per cent of control is 100%.

**Q.** What about the kinase still bound, per cent of control (ICK (human)) of the same compound?
**A.** The kinase still bound, per cent of control was 85%.

**Q.** What about the kinase still bound, per cent of control (VRK2 (human)) of the same compound?
**A.** The kinase still bound, per cent of control was 100%.

**Q.** And the kinase still bound, per cent of control (SGK3 (human))?
**A.** The kinase still bound, per cent of control was 99%.

**Q.** And the kinase still bound, per cent of control (DYRK1B (human))?
**A.** Its kinase still bound, per cent of control is 93%.

**Q.** And the kinase still bound, per cent of control (CASK (human))?
**A.** Its kinase still bound, per cent of control is 100%.

**Q.** And the kinase still bound, per cent of control (MAP3K13 (human))?
**A.** The kinase still bound, per cent of control was 100%.

**Q.** What about the kinase still bound, per cent of control (STK36 (human)) of the same compound?
**A.** Its kinase still bound, per cent of control is 91%.

**Q.** What about the per cent of control (CDK19 (human)) of the same compound?
**A.** The per cent of control was 98%.

**Q.** What about the kinase still bound, per cent of control (FGFR2 (human)) of the same compound?
**A.** The kinase still bound, per cent of control was 100%.

**Q.** And the kinase still bound, per cent of control (MAPK3 (human))?
**A.** Its kinase still bound, per cent of control is 99%.

**Q.** What about the kinase still bound, per cent of control [5] of the same compound?
**A.** Its kinase still bound, per cent of control is 96%.

**Q.** What about the kinase still bound, per cent of control (GSK3A (human)) of the same compound?
**A.** The kinase still bound, per cent of control was 100%.

**Q.** What about the kinase still bound, per cent of control (STK17A (human)) of the same compound?
**A.** Its kinase still bound, per cent of control is 91%.

**Q.** What about the kinase still bound, per cent of control (PRKCE (human)) of the same compound?
**A.** The kinase still bound, per cent of control was 94%.

**Q.** And the kinase still bound, per cent of control (MYO3B (human))?
**A.** Its kinase still bound, per cent of control is 97%.

**Q.** What about the kinase still bound, per cent of control [6] of the same compound?
**A.** The kinase still bound, per cent of control was 100%.

**Q.** What about the kinase still bound, per cent of control (NEK9 (human)) of the same compound?
**A.** The kinase still bound, per cent of control was 98%.

**Q.** And the kinase still bound, per cent of control (ERBB3 (human))?
**A.** The kinase still bound, per cent of control was 100%.

**Q.** What about the kinase still bound, per cent of control (PI4KB (human)) of the same compound?
**A.** The kinase still bound, per cent of control was 100%.

**Q.** What about the kinase still bound, per cent of control (MAP2K6 (human)) of the same compound?
**A.** The kinase still bound, per cent of control was 90%.

**Q.** And the kinase still bound, per cent of control [7]?
**A.** The kinase still bound, per cent of control was 88%.

**Q.** And the kinase still bound, per cent of control (SBK1 (human))?
**A.** The kinase still bound, per cent of control was 100%.

**Q.** And the kinase still bound, per cent of control [8]?
**A.** Its kinase still bound, per cent of control is 100%.

**Q.** And the per cent of control (CDK15 (human))?
**A.** The per cent of control was 100%.

**Q.** And the kinase still bound, per cent of control (TRPM6 (human))?
**A.** Its kinase still bound, per cent of control is 100%.

**Q.** And the kinase still bound, per cent of control [9]?
**A.** The kinase still bound, per cent of control was 100%.

**Q.** What about the kinase still bound, per cent of control (ITK (human)) of the same compound?
**A.** Its kinase still bound, per cent of control is 91%.

**Q.** What about the kinase still bound, per cent of control (BMPR2 (human)) of the same compound?
**A.** Its kinase still bound, per cent of control is 92%.

**Q.** And the kinase still bound, per cent of control (BMPR1B (human))?
**A.** The kinase still bound, per cent of control was 78%.

**Q.** What about the per cent of control (CDK7 (human)) of the same compound?
**A.** The per cent of control was 67%.

**Q.** Which per cent of control (CDC2L2 (human)) does the source give for `CC(C)n1nc(-c2cc3cc(O)ccc3[nH]2)c2c(N)ncnc21` here?
**A.** The per cent of control was 100%.

**Q.** What about the kinase still bound, per cent of control [1] of the same compound?
**A.** Its kinase still bound, per cent of control is 16%.

**Q.** And the kinase still bound, per cent of control [2]?
**A.** The kinase still bound, per cent of control was 0.2%.

**Q.** And the kinase still bound, per cent of control (TSSK1B (human))?
**A.** Its kinase still bound, per cent of control is 83%.

**Q.** What about the kinase still bound, per cent of control (IKBKB (human)) of the same compound?
**A.** Its kinase still bound, per cent of control is 84%.

**Q.** What about the per cent of control (CDK16 (human)) of the same compound?
**A.** Its per cent of control is 98%.

**Q.** What about the kinase still bound, per cent of control (EPHB3 (human)) of the same compound?
**A.** The kinase still bound, per cent of control was 81%.

**Q.** And the kinase still bound, per cent of control (TAOK1 (human))?
**A.** The kinase still bound, per cent of control was 0.2%.

**Q.** And the kinase still bound, per cent of control [4]?
**A.** Its kinase still bound, per cent of control is 12%.

**Q.** And the per cent of control (CDK14 (human))?
**A.** The per cent of control was 100%.

**Q.** What about the kinase still bound, per cent of control (ICK (human)) of the same compound?
**A.** Its kinase still bound, per cent of control is 58%.

**Q.** What about the kinase still bound, per cent of control (VRK2 (human)) of the same compound?
**A.** The kinase still bound, per cent of control was 100%.

**Q.** What about the kinase still bound, per cent of control (SGK3 (human)) of the same compound?
**A.** The kinase still bound, per cent of control was 81%.

**Q.** What about the kinase still bound, per cent of control (DYRK1B (human)) of the same compound?
**A.** The kinase still bound, per cent of control was 59%.

**Q.** What about the kinase still bound, per cent of control (MAP3K13 (human)) of the same compound?
**A.** The kinase still bound, per cent of control was 100%.

**Q.** And the kinase still bound, per cent of control (STK36 (human))?
**A.** Its kinase still bound, per cent of control is 100%.

**Q.** And the per cent of control (CDK19 (human))?
**A.** The per cent of control was 24%.

**Q.** And the kinase still bound, per cent of control (FGFR2 (human))?
**A.** Its kinase still bound, per cent of control is 5.8%.

**Q.** What about the kinase still bound, per cent of control (MAPK3 (human)) of the same compound?
**A.** Its kinase still bound, per cent of control is 100%.

**Q.** And the kinase still bound, per cent of control [5]?
**A.** The kinase still bound, per cent of control was 0.3%.

**Q.** And the kinase still bound, per cent of control (GSK3A (human))?
**A.** The kinase still bound, per cent of control was 74%.

**Q.** And the kinase still bound, per cent of control (STK17A (human))?
**A.** Its kinase still bound, per cent of control is 81%.

**Q.** What about the kinase still bound, per cent of control (PRKCE (human)) of the same compound?
**A.** The kinase still bound, per cent of control was 0%.

**Q.** And the kinase still bound, per cent of control (MYO3B (human))?
**A.** Its kinase still bound, per cent of control is 19%.

**Q.** What about the kinase still bound, per cent of control [6] of the same compound?
**A.** The kinase still bound, per cent of control was 0%.

**Q.** What about the kinase still bound, per cent of control (NEK9 (human)) of the same compound?
**A.** The kinase still bound, per cent of control was 100%.

**Q.** And the kinase still bound, per cent of control (ERBB3 (human))?
**A.** Its kinase still bound, per cent of control is 0%.

**Q.** What about the kinase still bound, per cent of control (PI4KB (human)) of the same compound?
**A.** The kinase still bound, per cent of control was 2.4%.

**Q.** And the kinase still bound, per cent of control (MAP2K6 (human))?
**A.** Its kinase still bound, per cent of control is 70%.

**Q.** And the kinase still bound, per cent of control [7]?
**A.** The kinase still bound, per cent of control was 81%.

**Q.** What about the kinase still bound, per cent of control (SBK1 (human)) of the same compound?
**A.** Its kinase still bound, per cent of control is 92%.

**Q.** And the kinase still bound, per cent of control [8]?
**A.** Its kinase still bound, per cent of control is 12%.

**Q.** What about the per cent of control (CDK15 (human)) of the same compound?
**A.** Its per cent of control is 96%.

**Q.** What about the kinase still bound, per cent of control (TRPM6 (human)) of the same compound?
**A.** The kinase still bound, per cent of control was 70%.

**Q.** What about the kinase still bound, per cent of control (ITK (human)) of the same compound?
**A.** Its kinase still bound, per cent of control is 100%.

**Q.** What about the kinase still bound, per cent of control (BMPR2 (human)) of the same compound?
**A.** Its kinase still bound, per cent of control is 0.1%.

**Q.** What about the kinase still bound, per cent of control (BMPR1B (human)) of the same compound?
**A.** Its kinase still bound, per cent of control is 0.1%.

**Q.** And the per cent of control (CDK7 (human))?
**A.** The per cent of control was 30%.
